Assay results from patent US10640534B2 (Agios Pharmaceuticals, Inc., priority 2012, dated 2020).

These compounds were tested on U87MG cells (assay: Cellular assay, inhibition of 2-HG production in U87MG cells). Settings: Homo sapiens, U-87 MG, 48 h.
Assay type: cell-based
In short: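 HT1080 or U87MG cells (U87MG kept with 500 ug/mL G418) seeded at 5000 cells/well and treated with compound at 0.2% final DMSO. Incubated 48 h at 37 °C. 2-HG inhibition determined by LC-MS. Viability read by CellTiter-Glo luminescence at 72 h post-dose.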
`N#Cc1ccnc(N2C(=O)[C@@H](O)C[C@H]2C(=O)N(c2cccc(F)c2)[C@H](C(=O)NC2CCC(F)(F)CC2)c2ccccc2Cl)n1` [Compound 189, (2S,4S)—N—((S)-1-(2-Chlorophenyl)-2-((4,4-difluorocyclohexyl)amino)-2-oxoethyl)-1-(4-cyanopyrimidin-2-yl)-N-(3-fluorophenyl)-4-hydroxy-5-oxopyrrolidine-2-carboxamide] gave an IC50 of less than 100 nM. With `CS(=O)(=O)c1cc(F)cc(N(C(=O)[C@@H]2CCC(=O)N2c2cc(C#N)ccn2)C(C(=O)NC2CCC(F)(F)CC2)c2ccccc2Cl)c1` (stereo partly drawn) [Compound 105, (2S)—N-(1-(2-Chlorophenyl)-2-((4,4-difluorocyclohexyl)amino)-2-oxoethyl)-1-(4-cyanopyridin-2-yl)-N-(3-fluoro-5-(methylsulfonyl)phenyl)-5-oxopyrrolidine-2-carboxamide] the IC50 was less than 100 nM. `COc1cccc(N(C(=O)[C@@H]2CCC(=O)N2c2cc(C#N)ccn2)[C@H](C(=O)NC2CC(F)(F)C2)c2ccccc2Cl)c1` [Compound 129, (S)—N—((S)-1-(2C)-2-((3,3-difluorocyclobutyl)amino)-2-oxoethyl)-1-(4-cyanopyridin-2-yl)-N-(3-methoxyphenyl)-5-oxopyrrolidine-2-carboxamide] was tested, and the IC50 was less than 100 nM. `N#Cc1ccnc(N2C(=O)CC[C@H]2C(=O)N(c2cc(F)cc(S(N)(=O)=O)c2)[C@H](C(=O)NC2CC(F)(F)C2)c2ccccc2Cl)c1` [Compound 158, (2S)—N-(1-(2-chlorophenyl)-2-(3,3-difluorocyclobutylamino)-2-oxo-ethyl)-1-(4-cyanopyridin-2-yl)-N-(3-fluoro-5-sulfamoylphenyl)-5-oxopyrrolidine-2-carboxamide] showed an IC50 of less than 100 nM. `[2H]c1c([2H])c([2H])c([C@@H](C(=O)NC2CC(F)(F)C2)N(C(=O)[C@@H]2CCC(=O)N2c2cc(C#N)ccn2)c2cc(F)cc(F)c2)c(Cl)c1[2H]` [Compound 163] gave an IC50 of less than 100 nM. With `N#Cc1cccnc1N1C(=O)CC[C@H]1C(=O)N(c1cccc(F)c1)[C@H](C(=O)NC1CC(F)(F)C1)c1ccccc1Cl` [Compound 69, (S)—N—((S)-1-(2-Chlorophenyl)-2-((3,3-difluorocyclobutyl)amino)-2-oxoethyl)-1-(3-cyanopyridin-2-yl)-N-(3-fluorophenyl)-5-oxopyrrolidine-2-carboxamide] the IC50 was less than 100 nM. `N#Cc1ccnc(N2C(=O)CC[C@H]2C(=O)N(c2cc(F)ccc2F)[C@H](C(=O)NC2CC(F)(F)C2)c2ccccc2Cl)c1` [Compound 197, (S)—N—((S)-1-(2-Chlorophenyl)-2-((3,3-difluorocyclobutyl)amino)-2-oxoethyl)-1-(4-cyanopyridin-2-yl)-N-(2,5-difluorophenyl)-5-oxopyrrolidine-2-carboxamide] showed an IC50 of less than 100 nM. For `N#Cc1ccnc(N2C(=O)CC[C@H]2C(=O)N(c2cncc(F)c2)[C@H](C(=O)NC2CC(F)(F)C2)c2ccccc2Cl)c1` [Compound 176, (S)—N—((S)-1-(2-Chlorophenyl)-2-(3,3-difluorocyclobutylamino)-2-oxoethyl)-1-(4-cyanopyridin-2-yl)-N-(5-fluoropyridin-3-yl)-5-oxopyrrolidine-2-carboxamide], the IC50 was less than 100 nM. In the case of `N#Cc1ccnc(N2C(=O)CC[C@H]2C(=O)N(c2cccc(F)c2)[C@H](C(=O)NC2CC(F)(F)C2)c2ccccc2Cl)n1` [Compound 68, (S)—N—((S)-1-(2-Chlorophenyl)-2-((3,3-difluorocyclobutyl)amino)-2-oxoethyl)-1-(4-cyanopyrimidin-2-yl)-N-(3-fluorophenyl)-5-oxopyrrolidine-2-carboxamide], the IC50 is reported as less than 100 nM. With `N#Cc1ccnc(N2C(=O)CC[C@H]2C(=O)N(c2cccc(F)c2)[C@H](C(=O)NC2CC(F)(F)C2)c2ccccc2)c1` [Compound 138, (S)-1-(4-Cyanopyridin-2-yl)-N—((S)-2-((3,3-difluorocyclobutyl)amino)-2-oxo-1-phenylethyl)-N-(3-fluorophenyl)-5-oxopyrrolidine-2-carboxamide] the IC50 was less than 100 nM.
